Data on three compounds can be found in patent US11576916B2, “Methods of preventing or treating ophthalmic diseases” (KINARUS AG, priority 2017, dated 2023).

Test [1] relates to choroidal neovascularization (CNV) in a mouse model of age-related macular degeneration. The test can be described thus: Laser-induced CNV mouse model of AMD: retinal thickness by SD-OCT. It is filed as in vivo, C57BL/6J mice. The settings on record: after 14 days of treatment; for CNV area retinal thickness, comparison between treatments (in words): versus vehicle, single agents or positive control aflibercept; for Difference in retinal thickness in CNV area as compared to the total retinal thickness: mean ± SD per lesion, vehicle 19.9 ± 20.7; for Difference in retinal thickness in CNV area as compared to the total retinal thickness / Total retinal thickness: SD-OCT, pioglitazone/pamapimod oral once daily, aflibercept 80 μg IVT per eye; for Total retinal thickness: mean ± SD. How it is done:
(§1) CNV (choroidal neovascularization) in mice or rats is an accepted model to mimic the wet form of age-related macular degeneration (AMD). The model is induced by laser photocoagulation which creates breaks in Bruchs membrane. The subsequent pathological cascade includes inflammation, angiogenesis and proteolysis.
(§2) A study in a mouse model was performed to evaluate the efficacy of pioglitazone and pamapimod each alone or in combination on the development of CNV. Three laser burns were used to induce CNV in the eyes of C57Bl/6J mice. Pioglitazone or pamapimod or the combination of pioglitazone/pamapimod were administered orally once daily to groups of animals starting one day prior to lasering.
(§3) Male 7-week old C57BL/6J mice (Janvier Labs, France) were obtained and housed at a constant temperature (22±+1° C.) in a light-controlled environment with ad libitum access to food and water.
(§4) For CNV induction, animals were anesthetized with an intraperitoneal injection of ketamine (37.5 mg/kg; Ketalar, Pfizer Oy Animal Health, Helsinki, Finland) and medetomidine (0.45 mg/kg; Domitor, Orion Oy, Espoo, Finland). A drop of 0.5% tropicamid (Santen) was applied on the cornea to dilate the pupils. Laser photocoagulation was performed once using a 532 nm diode laser Lumenis Novus Spectra (Lumenis Ltd., Israel) attached to a slit lamp. A coverslip and Viscotears® gel (Novartis) were used to applanate the cornea. Three laser lesions were performed per eye. Following lasering, anesthesia was reversed by u2-antagonist medetomidine, atipamezole (0.5 mg/kg i.p., Antisedan, Orion Pharma, Espoo, Finland).
(§5) Oral drug formulations were prepared in a vehicle adjusted to 4.8±0.05 using buffer. Test compounds [pioglitazone HCl (2.5 mg/ml), pamapimod (10 mg/ml) and combination pioglitazone HCl (2.5 mg/ml)+pamapimod (10 mg/ml)] were formulated in this vehicle and sonicated prior to administration (approx. 3 min).
Aflibercept (Eylea®, Bayer Pharma AG) was purchased as a ready-to-use solution for intravitreal injections at a concentration of 40 mg of aflibercept in 1 ml solution. The dose of 80 μg (injection volume of 2 μl) of aflibercept per mouse eye was used in the present study.
Compounds were administered either orally by gastric lavage (pioglitazone, pamapimod) at a dose of 0.2 ml volume per 20 g mouse weight or by IVT (aflibercept) using a 5 μl glass microsyringe (Hamilton Bonaduz AG, Bonaduz, Switzerland). Aflibercept was injected only into the lasered right eye. The injection volume was 2 μl per eye.
CNV lesions were monitored using Envisu R2200 SD-OCT (Spectral Domain Optical Coherence Tomography system; Bioptigen Inc./Leica) in anesthetized mice as described above. The thickness of each retina was measured from 24 sites of randomly overlaid grid and at all three lasered sites. The total retinal thickness was considered as the thickness of all layers from nerve fiber layer to RPE (healthy measurement sites) or to an implied line connecting the RPE around the site of damage (lasered sites).
Quantitative data was graphed and analyzed using GraphPad Prism software (v. 7.0, GraphPad Software Inc.). The D'Agostino & Pearson normality test was used for each parameter. […] Differences were considered to be statistically significant at the P<0.05 level.

The test system is the same in test [2]. The test can be described thus: Laser-induced CNV mouse model of AMD: isolectin B4 staining of choroidal flat-mounts (CNV lesion area). It is filed as in vivo, C57BL/6J mice. To be noted: for Formation of CNV in mice, in words: conclusion of the study, versus vehicle. As for the experimental part:
as §1, §2, §3, §4, §5
Aflibercept (Eylea®, Bayer Pharma AG) was purchased as a ready-to-use solution for intravitreal injections at a concentration of 40 mg of aflibercept in 1 ml solution. The dose of 80 μg (injection volume of 2 μl) of aflibercept per mouse eye was used in the present study. […]
The flat-mount choroids were stained with fluorescein-labeled isolectin B4 (Vector Laboratories) to detect lesion CNV area and imaged using Leica DM IRBE microscope (Leica Microsystems, Germany) with an epifluorescent attachment and analyzed using Image J software (v.1.51f, National Institutes of Health, USA).
Quantitative data was graphed and analyzed using GraphPad Prism software (v. 7.0, GraphPad Software Inc.). […]

Counter-ions that a name gives are not always drawn.

`CCc1ccc(CCOc2ccc(CC3SC(=O)NC3=O)cc2)nc1` (centres unmarked) [STR001, pioglitazone HCl, reference compound]: the “CNV area retinal thickness, comparison between treatments (in words)” value in test [1] is recorded as “superior to the positive control Aflibercept”. For the same compound, the “Difference in retinal thickness in CNV area as compared to the total retinal thickness” value (“Difference in retinal thickness” below) was 9.86 ± 17.7% in test [1] (HCl) and 9.86±17.7% in test [1] (listed as pioglitazone, HCl). In test [1], the Total retinal thickness was determined as 215.8 ± 2.9 μm. The “Formation of CNV in mice, in words” value in test [2] is “significantly decreased”.

Consider `Cn1c(=O)c(Oc2ccc(F)cc2F)cc2cnc(NC(CCO)CCO)nc21` [STR002, 6-(2,4-Difluorophenoxy)-2-[3-hydroxy-1-(2-hydroxyethyl)-propylamino]-8-methyl-8H-pyrido[2,3-d]pyrimidin-7-one], for which, in test [1], the “CNV area retinal thickness, comparison between treatments (in words)” value is “superior to the positive control Aflibercept”; the “Difference in retinal thickness” value stood at 7.75 ± 22.4%; the Total retinal thickness is listed as 216.2 ± 6.0 μm. In test [1] (listed as pamapimod), the “Difference in retinal thickness” value worked out at 7.75±22.4%. The “Isolectin B4 positive area per CNV lesion (new vessel area), in words” value in test [2] (choroidal flat-mounts, after 14 days of treatment, Kruskal-Wallis test with Dunn's multiple comparisons) is recorded as “significantly different from the pioglitazone alone group”. In test [2], the “Formation of CNV in mice, in words” value was “significantly decreased”.

Turning to “Aflibercept: Aflibercept (Eylea®, Bayer Pharma AG), ready-to-use solution for intravitreal injections; positive control”, in test [1], the “Difference in retinal thickness” value worked out at 16.1±26.7% and the Total retinal thickness stood at 215.7 ± 6.5 μm. Also, the “Formation of CNV in mice, in words” value in test [2] is given as “significantly decreased”.
